Test results taken from patent US4663457A, “1-cyclopropyl-6,7-dihalo-1,4-dihydro-4-oxo-1,8-naphthyridine -3-carboxylic acid and their esters, useful as intermediates for preparing the 7-amine substituted naphthyridines” (Warner-Lambert Company, priority 1985, dated 1987).
≈ marks a conversion by molar mass, not a printed value. Read-outs that look alike come from different tables or passages of the source.

Experiments:
Assay in all cases: in vitro antibacterial activity, MIC by microtitration dilution method
Type in all cases: cell-based
[1] = system: Streptococcus pneumoniae SV-1; conditions: SV1, read-out: Minimal Inhibitory Concentration MIC
From the text: (§1) The compounds of the invention display antibacterial activity when tested by the microtitration dilution method as described in Heifetz, et al, Antimicr. Agents & Chemoth., 6, 124 (1974), which is incorporated herein by reference.
(§2) By use of the above referenced method, the followed minimum inhibitory concentration values (MICs in μg/ml) were obtained for representative compounds of the invention.

[2] = system: Escherichia coli Vogel; conditions: read-out: Minimal Inhibitory Concentration MIC
From the text: as §1, §2

[3] = system: Enterobacter cloacae MA 2646; conditions: MA2646, read-out: Minimal Inhibitory Concentration MIC
From the text: as §1, §2

[4] = system: Pseudomonas aeruginosa UI-18; conditions: UI18, read-out: Minimal Inhibitory Concentration MIC
From the text: as §1, §2

[5] = system: Klebsiella pneumoniae MGH-2; conditions: MGH2, read-out: Minimal Inhibitory Concentration MIC
From the text: as §1, §2

[6] = system: Staphylococcus aureus H 228; conditions: H228, read-out: Minimal Inhibitory Concentration MIC
From the text: as §1, §2

[7] = system: Proteus rettgeri M 1771; conditions: Providencia rettgeri, M1771, read-out: Minimal Inhibitory Concentration MIC
From the text: as §1, §2

[8] = system: Streptococcus faecalis MGH-2; conditions: Enterococcus faecalis, MGH2, read-out: Minimal Inhibitory Concentration MIC
From the text: as §1, §2

[9] = system: Staphylococcus aureus UC-76; conditions: UC76, read-out: Minimal Inhibitory Concentration MIC
From the text: as §1, §2

[10] = system: Streptococcus pyogenes C-203
From the text: Agents & Chemoth., 6, 124 (1974), which is incorporated herein by reference.

[11] = C203, in vitro, Streptococcus pyogenes C-203, read-out: Minimal Inhibitory Concentration MIC

MIC [10, 11] [µg/mL] | SMILES | MIC [1] [µg/mL] | MIC [2] [µg/mL] | MIC [3] [µg/mL] | MIC [4] [µg/mL] | MIC [5] [µg/mL] | MIC [6] [µg/mL] | MIC [7] [µg/mL] | MIC [8] [µg/mL] | MIC [9] [µg/mL] | MIC ([10]; Streptococcus pyogenes, C203, read-out: Minimal Inhibitory Concentration MIC) [µg/mL]
1.6 (≈ 4.81 µM) | O=C(O)c1cn(C2CC2)c2nc(N3CCNCC3)c(F)cc2c1=O [Ex. 1, 1-Cyclopropyl-6-fluoro-1,4-dihydro-4-oxo-7-(1-piperazinyl)-1,8-naphthyridine-3-carboxylic acid] | 1.6 (≈ 4.81 µM) | ≤ 0.1 | 0.1 (≈ 0.301 µM) | 0.2 (≈ 0.602 µM) | 0.1 (≈ 0.301 µM) | 1.6 (≈ 4.81 µM) | 0.2 (≈ 0.602 µM) | 1.6 (≈ 4.81 µM) | 0.4 (≈ 1.2 µM) | –
0.4 (≈ 1.14 µM) | O=C(O)c1cn(C2CC2)c2c(F)c(N3CCC(O)C3)c(F)cc2c1=O (stereo not shown) [Ex. 4, 1-Cyclopropyl-6,8-difluoro-1,4-dihydro-7-(3-hydroxy-1-pyrrolidinyl)-4-oxo-3-quinolinecarboxylic acid] | 0.4 (≈ 1.14 µM) | 0.1 (≈ 0.285 µM) | 0.2 (≈ 0.571 µM) | 0.8 (≈ 2.28 µM) | 0.05 (≈ 0.143 µM) | 0.025 (≈ 0.0714 µM) | 0.2 (≈ 0.571 µM) | 0.1 (≈ 0.285 µM) | 0.013 (≈ 0.0371 µM) | –
– | CN1CCN(c2nc3c(cc2F)c(=O)c(C(=O)O)cn3C2CC2)CC1 [Ex. 2, 1-Cyclopropyl-6-fluoro-1,4-dihydro-7-(4-methyl-1-piperazinyl)-4-oxo-1,8-naphthyridine-3-carboxylic acid] | 6.3 (≈ 18.2 µM) | ≤ 0.1 | ≤ 0.1 | 0.4 (≈ 1.15 µM) | ≤ 0.1 | 0.4 (≈ 1.15 µM) | 0.4 (≈ 1.15 µM) | 0.8 (≈ 2.31 µM) | 0.1 (≈ 0.289 µM) | 3.1 (≈ 8.95 µM)

SMILES | MIC [10, 11] [µg/mL] | MIC [1] [µg/mL] | MIC [2] [µg/mL] | MIC [3] [µg/mL] | MIC [4] [µg/mL] | MIC [5] [µg/mL] | MIC [6] [µg/mL] | MIC [7] [µg/mL] | MIC [8] [µg/mL] | MIC [9] [µg/mL] | MIC ([10]; Streptococcus pyogenes, C203, read-out: Minimal Inhibitory Concentration MIC) [µg/mL]
O=C(O)c1cn(C2CC2)c2c(F)c(N3CCNCC3)c(F)cc2c1=O [Ex. 3, 1-Cyclopropyl-6,8-difluoro-1,4-dihydro-4-oxo-7-(1-piperazinyl)-3-quinolinecarboxylic acid] | 0.4 (≈ 1.15 µM) | 0.8 (≈ 2.29 µM) | ≤ 0.1 | ≤ 0.1 | 0.2 (≈ 0.573 µM) | ≤ 0.1 | 0.4 (≈ 1.15 µM) | ≤ 0.1 | 0.4 (≈ 1.15 µM) | ≤ 0.1 | –
